This is an account of results in US20080039522A1, “Composition Containing a Complex Comprising a Metal Ion and a Carboxylate Ligand Having Anti-Inflammatory Activity” (Medical Therapies Limited, priority 2004, published 2008).

The data set can be described thus: EPR spectroscopic determination of Cu(II) monomer / dissociation of the complex in formulations. Format: physicochemical. As to conditions: percentage of the total amount of Cu in the composition; X-band EPR, 4 K. On the procedure: The synthesis of [Cu2(Indo)4(OH2)2] may result in a product containing a small amount of monomer (typically 5% or less), and this monomer may or may not contain Indo Thus a composition containing [Cu2(Indo)4(OH2)2] may or may not contain a small amount of a Cu(II) monomer containing Indo.
The relative amounts of the Cu(II) monomer in samples of various compositions containing the complex [Cu2(Indo)4(OH2)2] were determined as described below. […]
EPR Spectroscopy. Low temperature (4-110 K) X-band EPR spectra of the compositions containing [Cu2(Indo)4(OH2)2] were measured at X-band frequencies (˜9.5 GHz) using a Bruker EMX EPR spectrometer equipped with a standard ER4120 X band cavity, EMX 035M NMR gaussmeter, EMX 032T field controller, EMX 081 magnet power supply, Bruker EMX 048T microwave bridge control and BVT2000 variable temperature unit and Oxford Instruments E900 continuous flow cryostat (for low temperature data collection). Low temperature X-band EPR Cu(II) spectra of samples of [Cu2(Indo)4(OH2)2] containing less than 0.47 mM Cu(II) were measured using a Bruker ESP 300 spectrometer equipped with a Hewlett Packard 5352B microwave frequency counter, Bruker ER 085C magnet power supply, Bruker ER 032 magnet field control, Bruker ER 023M signal channel and Bruker ESP 1600-1048 microwave bridge controller. […]

As to `COc1ccc2c(c1)c(CC(=O)[O-])c(C)n2C(=O)c1ccc(Cl)cc1.COc1ccc2c(c1)c(CC(=O)[O-])c(C)n2C(=O)c1ccc(Cl)cc1.COc1ccc2c(c1)c(CC(=O)[O-])c(C)n2C(=O)c1ccc(Cl)cc1.COc1ccc2c(c1)c(CC(=O)[O-])c(C)n2C(=O)c1ccc(Cl)cc1.O.O.[Cu+2].[Cu+2]` [[Cu2(Indo)4(OH2)2]], the “Cu(II) monomer (%)” value is “^aThe technique is not applicable to dry powders, however, solid-state [Cu2(Indo)4L2] (L = OH2) contains <1% Cu(II) monomer fraction”.
